These results are taken from ChEMBL document CHEMBL5634159, “Discovery of novel tumor-targeted near-infrared probes with 6-substituted pyrrolo[2,3-d]pyrimidines as targeting ligands” (Eur J Med Chem, 2023).

Series [1] concerns KB. Briefly: Binding affinity to Folate receptor in human KB cells assessed as increase in fluorescence intensity incubated for 2 hrs by fluorescence microscopic analysis. It counts as cell-based.
Series [2] in a line: Drug uptake in human A549 cells assessed as increase in fluorescence intensity in presence of folic acid by fluorescence microscopic analysis. The format is ADME, cell-based.
Series [3] is described as follows: Drug uptake in mouse RAW264.7 cells assessed as increase in fluorescence intensity in presence of folic acid by fluorescence microscopic analysis. It counts as ADME, cell-based.
Series [4] concerns KB. Kind of series: Binding affinity to Folate receptor in human KB cells assessed as relative fluorescence intensity incubated for compound for 1 hr by flow cytometry analysis. It counts as cell-based. A general note: Flow cytometry measures light scatter and fluorescence of single cells or particles in a stream.
Series [5] relates to KB. Briefly: Binding affinity to Folate receptor in human KB cells assessed as relative fluorescence intensity preincubated with compound for 1 hr followed by folic acid addition and measured after 1 hr by flow cytometry analysis. It counts as cell-based. To be noted: time 2.0 hrs.
The target of series [6] is Folate receptor alpha (Homo sapiens, UniProt P15328). Briefly: Binding affinity to Folate receptor alpha in human KB cells assessed as dissociation constant. The format is cell-based.
Folate receptor alpha, sequence (P15328 whole entry): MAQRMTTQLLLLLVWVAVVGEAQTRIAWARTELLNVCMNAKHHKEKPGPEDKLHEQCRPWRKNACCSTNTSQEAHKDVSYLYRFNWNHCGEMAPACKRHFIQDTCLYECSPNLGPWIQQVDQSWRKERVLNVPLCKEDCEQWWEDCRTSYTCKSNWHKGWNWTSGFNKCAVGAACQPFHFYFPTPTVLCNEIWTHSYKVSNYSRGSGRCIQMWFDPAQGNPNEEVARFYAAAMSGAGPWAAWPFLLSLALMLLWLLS
Series [7] concerns the target Folate receptor beta (Mus musculus, UniProt Q05685). Kind of series: Binding affinity to Folate receptor beta in mouse RAW264.7 cells assessed as dissociation constant. The format is cell-based.
Series [8] can be described thus: Drug uptake in BALB/c nude mouse tumor xenografted with human KB cells assessed as increase in fluorescence signals measured for 2 days. It counts as ADME, tissue-based, Neoplasm. To be noted: in vivo, 48 h, time 2 day. (In general: Xenograft models place foreign cells or tissue in a host animal.)
Series [9] can be described thus: Ex vivo biodistribution in BALB/c mouse tumor of human KB cells expressing folate receptor alpha measured for 8 hrs by imaging analysis. The format is ADME, organism-based, Neoplasm.
A short description of series [10]: Drug uptake in BALB/c mouse heart xenografted with human KB cells at 10 nmol measured for 8 hrs. The format is ADME, tissue-based. To be noted: in vivo.
Series [11] is described as follows: Drug uptake in BALB/c mouse lung xenografted with human KB cells at 10 nmol measured for 8 hrs. The format is ADME, tissue-based. To be noted: in vivo.
Series [12] in a line: Drug uptake in BALB/c mouse liver xenografted with human KB cells at 10 nmol measured for 8 hrs. It counts as ADME, tissue-based. To be noted: in vivo.
The nature of series [13]: Drug uptake in BALB/c mouse spleen xenografted with human KB cells at 10 nmol measured for 8 hrs. The format is ADME, tissue-based. To be noted: in vivo.
Series [14] in a line: Drug uptake in BALB/c mouse stomach xenografted with human KB cells at 10 nmol measured for 8 hrs. It counts as ADME, tissue-based. To be noted: in vivo.
Series [15] can be described thus: Drug uptake in BALB/c mouse kidney xenografted with human KB cells at 10 nmol measured for 8 hrs. The format is ADME, tissue-based. To be noted: in vivo.
The nature of series [16]: Drug uptake in BALB/c mouse intestine xenografted with human KB cells at 10 nmol measured for 8 hrs. The format is ADME, tissue-based. To be noted: in vivo.
In series [17] the test system is HUVEC. Kind of series: Cytotoxicity against human HUVEC cells assessed as cell growth inhibition incubated for 24 hrs by CCK-8 assay. It counts as toxicity, cell-based. On the technique in general: Tetrazolium assays rely on reduction of a dye to a coloured formazan, in cell work by metabolically active cells.
In series [18] the test system is KB. Briefly: Binding affinity to Folate receptor in human KB cells assessed as relative fluorescence intensity incubated for 1 hr by flow cytometry analysis. The format is cell-based.
A short description of series [19]: Drug uptake in BALB/c nude mouse tumor xenografted with human A549 cells assessed as increase in fluorescence signals measured for 2 days. To be noted: 48 h, time 2 day. The format is ADME, tissue-based, Neoplasm.
A short description of series [20]: Drug uptake in BALB/c mouse tumor xenografted with human KB cells at 10 nmol measured for 8 hrs. It counts as ADME, tissue-based, Neoplasm. To be noted: in vivo.
Series [21] can be described thus: Drug uptake in BALB/c mouse tumor xenografted with human KB cells at 10 nmol measured for 8 hrs in presence of folic acid. The format is ADME, tissue-based, Neoplasm. To be noted: in vivo.
Series [22] is described as follows: Drug uptake in BALB/c mouse tumor xenografted with human A549 cells at 10 nmol measured for 8 hrs in presence of folic acid. It counts as ADME, tissue-based, Neoplasm.
Series [23] is described as follows: Ratio of biodistribution in tumor to heart of human KB cell xenografted in BALB/c mouse at 10 nmol measured for 8 hrs. It counts as ADME, organism-based. To be noted: in vivo.
Series [24] can be described thus: Ratio of biodistribution in tumor to lung of human KB cell xenografted in BALB/c mouse at 10 nmol measured for 8 hrs. The format is ADME, organism-based. To be noted: in vivo.
Series [25] can be described thus: Ratio of biodistribution in tumor to liver of human KB cell xenografted in BALB/c mouse at 10 nmol measured for 8 hrs. The format is ADME, organism-based. To be noted: in vivo.
Series [26] in a line: Half life in BALB/c mouse at 10 nmol measured for 8 hrs. It counts as ADME. To be noted: in vivo.
Series [27] is described as follows: Elimination half life in BALB/c mouse at 10 nmol measured for 8 hrs. The format is ADME. To be noted: in vivo, read-out: beta t1/2 (converted).
Series [28] is described as follows: Acute toxicity in ICR mouse assessed as effect on food intake at 10 micromol/ml measured for 14 days. To be noted: in vivo, 336 h, dose 10 µmol/ml, time 14 day.
A short description of series [29]: Acute toxicity in ICR mouse assessed as effect on body weight at 10 micromol/ml measured for 14 days. To be noted: in vivo, 336 h, dose 10 µmol/ml, time 14 day.
A short description of series [30]: Acute toxicity in ICR mouse assessed as animal death at 10 micromol/ml measured for 14 days. To be noted: in vivo, 336 h, dose 10 µmol/ml, time 14 day.
Series [31] can be described thus: Acute toxicity in ICR mouse assessed as heart damage at 10 micromol/ml measured for 14 days by H and E staining based analysis. It counts as tissue-based. To be noted: in vivo, 336 h, dose 10 µmol/ml, time 14 day.
A short description of series [32]: Acute toxicity in ICR mouse assessed as liver damage at 10 micromol/ml measured for 14 days by H and E staining based analysis. The format is tissue-based. To be noted: in vivo, 336 h, dose 10 µmol/ml, time 14 day.
A short description of series [33]: Acute toxicity in ICR mouse assessed as spleen damage at 10 micromol/ml measured for 14 days by H and E staining based analysis. The format is tissue-based. To be noted: in vivo, 336 h, dose 10 µmol/ml, time 14 day.
Series [34] is described as follows: Acute toxicity in ICR mouse assessed as lung damage at 10 micromol/ml measured for 14 days by H and E staining based analysis. The format is tissue-based. To be noted: in vivo, 336 h, dose 10 µmol/ml, time 14 day.
A short description of series [35]: Acute toxicity in ICR mouse assessed as kidney damage at 10 micromol/ml measured for 14 days by H and E staining based analysis. It counts as tissue-based. To be noted: in vivo, 336 h, dose 10 µmol/ml, time 14 day.

Calls of active or inactive are those of the source. The rule behind the calls is not given here.

Folate receptor beta, sequence (Q05685 whole entry): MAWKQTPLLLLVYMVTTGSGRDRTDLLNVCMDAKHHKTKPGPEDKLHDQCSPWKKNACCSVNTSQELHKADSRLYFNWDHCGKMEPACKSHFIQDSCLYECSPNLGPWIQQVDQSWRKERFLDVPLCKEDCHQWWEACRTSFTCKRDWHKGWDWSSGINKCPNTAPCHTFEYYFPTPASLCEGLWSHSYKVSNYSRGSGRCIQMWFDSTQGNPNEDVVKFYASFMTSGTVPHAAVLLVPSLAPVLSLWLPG

The Kd is the constant that tells how readily two partners part at equilibrium. `CC1(C)C(/C=C/C2=C(Oc3ccc(C[C@H](NC(=O)CNC(=O)Cc4cc5c(=O)[nH]c(N)nc5[nH]4)C(=O)O)cc3)C(=C/C=C3/N(CCCCS(=O)(=O)O)c4ccccc4C3(C)C)/CCC2)=[N+](CCCCS(=O)(=O)[O-])c2ccccc21`: the outcome in series [1], in series [4] and in series [5] was Active. For the same molecule, the Drug uptake result in series [2] is “Not Active”; in series [3], “Not Active”; in [8], “Active”; in series [9] it was “Active”; in [10], “Not Active”; in [11], “Not Active”. In addition, the Drug uptake result in series [12], in series [13], in series [14], in series [15] and in series [16] was “Not Active” each time. Moreover, the dissociation constant Kd amounted to 39.8 nM in series [6] and 26.1 nM in series [7]. Further, in series [17], the Activity entry is “Non-Toxic”.
Take `CC1(C)C(/C=C/C2=C(Oc3ccc(C[C@H](NC(=O)c4ccc(NCc5cnc6nc(N)[nH]c(=O)c6n5)cc4)C(=O)O)cc3)C(=C/C=C3/N(CCCCS(=O)(=O)O)c4ccccc4C3(C)C)/CCC2)=[N+](CCCCS(=O)(=O)[O-])c2ccccc21`: in series [18], the outcome was Active. Besides, the Kd in series [6] came out at 22.1 nM; in series [7], 20.9 nM. The Drug uptake entry in series [8] is listed as “Active”. Also, in series [17], the Activity entry was “Non-Toxic”.
`CC1(C)C(/C=C/C2=C(Oc3ccc(C[C@H](NC(=O)c4ccc(CCCCc5cc6c(=O)[nH]c(N)nc6[nH]5)cc4)C(=O)O)cc3)C(=C/C=C3/N(CCCCS(=O)(=O)O)c4ccccc4C3(C)C)/CCC2)=[N+](CCCCS(=O)(=O)[O-])c2ccccc21`: the result in [18] and in series [5] was Active. Besides, the dissociation constant Kd in series [6] was found to be 14.2 nM; in [7], 16 nM. Moreover, the Drug uptake entry was “Active” in [8]; “Not Active” in [19]; “Active” in series [20]; “Not Active” in series [21]; “Not Active” in [22]. Further, the Ratio in series [23] is 13; in series [24], 8; in series [25], 2. For the same molecule, the half-life in series [26] was 15 min; in series [27], 60 min. Moreover, the Activity result in [17], in [28], in [29], in [30], in [31] and in series [32] was “Non-Toxic” each time. For the same molecule, the Activity entry in [33], in [34] and in [35] was “Non-Toxic” throughout.
As for `CC1(C)C(/C=C/C2=C(Oc3ccc(C[C@H](NC(=O)c4ccc(CCCCc5cc6c(=O)[nH]c(N)nc6[nH]5)s4)C(=O)O)cc3)C(=C/C=C3/N(CCCCS(=O)(=O)O)c4ccccc4C3(C)C)/CCC2)=[N+](CCCCS(=O)(=O)[O-])c2ccccc21`, the result in series [18] and in series [5] was Active. In addition, the Kd in [6] turned out to be 10.3 nM; in series [7] it was 11 nM. Also, the Drug uptake entry in series [8] and in series [12] was “Active” throughout. In [17], the Activity entry is “Non-Toxic”.
`CC1(C)C(/C=C/C2=C(SC[C@H](NC(=O)CNC(=O)Cc3cc4c(=O)[nH]c(N)nc4[nH]3)C(=O)O)C(=C/C=C3/N(CCCCS(=O)(=O)O)c4ccccc4C3(C)C)/CCC2)=[N+](CCCCS(=O)(=O)[O-])c2ccccc21`: in series [4], the outcome was inactive. Further, the dissociation constant Kd in series [6] turned out to be 81.9 nM; in series [7], 58.9 nM. For the same molecule, the Drug uptake entry was “Active” in series [9]; “Not Active” in series [10]; “Not Active” in [11]; “Not Active” in series [12]; “Not Active” in [13]; “Not Active” in [14]. Besides, the Drug uptake entry in series [15] and in [16] was “Not Active” in each case. Besides, in series [17], the Activity entry is given as “Non-Toxic”.
In the case of `CC1(C)C(/C=C/C2=C(SC[C@@H](NC(=O)CC[C@H](NC(=O)CNC(=O)Cc3cc4c(=O)[nH]c(N)nc4[nH]3)C(=O)O)C(=O)O)C(=C/C=C3/N(CCCCS(=O)(=O)O)c4ccccc4C3(C)C)/CCC2)=[N+](CCCCS(=O)(=O)[O-])c2ccccc21`, the outcome in [4] was inactive. Also, the figures for the Kd in [6] and in series [7] were 61.2 nM and 47.9 nM, respectively. Moreover, the Drug uptake result in [9] was “Active”; in [10], “Not Active”; in [11], “Not Active”; in [12], “Not Active”; in [13], “Not Active”; in series [14], “Not Active”. The Drug uptake entry in [15] and in series [16] was “Not Active” each time. Besides, in series [17], the Activity result is on record as “Non-Toxic”.
